In patent US12583851B2, “Heteroaryl-substituted pyrazine derivatives as pesticides” (Elanco Animal Health GmbH, priority 2019, dated 2026):

Assays:
Type in all cases: in vivo
[1] = test system: green peach aphid (Myzus persicae); assay: Myzus persicae spray test; conditions: foliar, 120 h, Chinese cabbage leaf disks, after 5 days
Protocol: Myzus persicae—Spray Test
Solvent: 78.0 parts by weight acetone • 1.5 parts by weight dimethylformamide
(§1) Emulsifier: alkylarylpolyglycol ether
(§2) To produce a suitable preparation of active compound, 1 part by weight of active compound is mixed with the stated amount of solvents and is diluted with water, containing an emulsifier concentration of 1000 ppm, to the desired concentration. Further test concentrations are prepared by dilution with emulsifier containing water.
Chinese cabbage (Brassica pekinensis) leaf disks infected with all instars of the green peach aphid (Myzus persicae), are sprayed with a preparation of the active ingredient of the desired concentration.
After 5 days mortality in % is determined. 100% means all aphids have been killed and 0% means none of the aphids have been killed.

[2] = test system: larvae of the banded cucumber beetle (Diabrotica balteata); assay: Diabrotica balteata spray test; conditions: 168 h, after 7 days, read-out: efficacy (seedling growth); for pest or weed control at 6.4 µg/disc, 20 g/ha: 20 g/ha (=6.4 μg/well); for pest or weed control at 32 µg/disc, 100 g/ha: 100 g/ha (=32 μg/well)
Method in brief: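 Germinated wheat seedlings (5 per well, on agar) sprayed with compound in acetone/DMF with emulsifier-containing water, then infested with 10–20 Diabrotica balteata larvae. Efficacy (%) scored after 7 days from seedling growth: 100% = growth as untreated uninfested control, 0% = no seedlings grown.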

[3] = test system: Rhipicephalus (Boophilus) microplus larvae (strain Parkhurst, resistant against synthetic pyrethroids); assay: Rhipicephalus (Boophilus) microplus in-vitro contact test, larval cattle tick; conditions: after 48 hours, read-out: efficacy (larvae dead or moribund); for pest or weed control at 1 µg/cm2, 100 g/ha: 1 μg/cm^2 (=100 g/ha); for pest or weed control at 5 µg/cm2, 500 g/ha: 5 μg/cm^2 (=500 g/ha)
Method in brief: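 Acetone solutions were coated onto glass tube walls (900 ppm gives 5 μg/cm²); after drying, 20–50 pyrethroid-resistant Parkhurst larvae added and held at 27 °C, 85% RH. At 48 h, efficacy as % larvae dead or moribund, judged by loss of negative geotaxis.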

[4] = test system: larvae of the southern green stink bug (Nezara viridula); assay: Nezara viridula spray test; conditions: 96 h, 500 g/ha, barley plants, after 4 days
Protocol: Nezara viridula—Spray Test
Solvent: 78.0 parts by weight of acetone • • 1.5 parts by weight of dimethylformamide
as §1
as §2, with “solvent,” for “solvents”, “and the concentrate” for “and”
Barley plants (Hordeum vulgare) infested with larvae of the southern green stink bug (Nezara viridula) are sprayed with a test solution containing the desired concentration of the active ingredient.
After 4 days mortality in % is determined. 100% means all the stink bugs have been killed; 0% means none of the stink bugs have been killed.

[5] = test system: fall armyworm larvae (Spodoptera frugiperda); assay: Spodoptera frugiperda spray test; conditions: 168 h, maize leaf sections, after 7 days
Method in brief: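 Compound dissolved in acetone/dimethylformamide, diluted in water containing 1000 ppm alkylarylpolyglycol ether emulsifier and sprayed onto maize leaf sections. Dried sections were infested with larvae; % mortality scored after 7 days (100% = all caterpillars killed, 0% = none).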

[6] = test system: adult engorged female ticks (Rhipicephalus microplus); assay: Rhipicephalus (Boophilus) microplus injection test; conditions: 168 h, 4 μg/animal, egg deposition after 7 days, read-out: efficacy (infertile eggs)
Protocol: Rhipicephalus (Boophilus) microplus—Injection Test
(§3) Solvent: dimethyl sulfoxide
To produce a suitable preparation of active compound, 10 mg of active compound are dissolved in 0.5 mL solvent, and the concentrate is diluted with solvent to the desired concentration.
Five adult engorged female ticks (Rhipicephalus microplus) are injected with 1 μL compound solution into the abdomen. The ticks are transferred into replica plates and incubated in a climate chamber.
After 7 days egg deposition of fertile eggs is monitored. Eggs where fertility is not visible are stored in a climate chamber till hatching after about 42 days. An efficacy of 100% means all eggs are infertile; 0% means all eggs are fertile.

[7] = test system: adult unfed cat fleas (Ctenocephalides felis); assay: Ctenocephalides felis oral test; conditions: 48 h, 100 ppm in citrated cattle blood, after 2 days
Protocol: Ctenocephalides felis—Oral Test
as §3
To produce a suitable preparation of active compound, 10 mg of active compound are dissolved in 0.5 mL solvent, and the concentrate is diluted with citrated cattle blood to the desired concentration.
Approximately 20 adult unfed cat fleas (Ctenocephalides felis) are placed in a flea chamber whose top and bottom is covered with gauze. A chamber whose bottom is sealed with parafilm, is filled with the blood-compound solution and placed on top of the flea chamber, so that the fleas can suck the blood. The blood chamber is heated to 37° C. whereas the flea chamber is kept at room temperature.
After 2 days mortality in % is determined. 100% means all the fleas have been killed; 0% means none of the fleas have been killed.

[8] = test system: adult brown dog ticks (Rhipicephalus sanguineus); assay: Rhipicephalus sanguineus in-vitro contact test, adult brown dog ticks; conditions: 48 h, after 48 hours, read-out: efficacy (ticks dead or moribund); for pest or weed control at 5 µg/cm2, 500 g/ha: 5 μg/cm^2 (=500 g/ha); for pest or weed control at 1 µg/cm2, 100 g/ha: 1 μg/cm^2 (=100 g/ha)
Protocol: Rhipicephalus sanguineus—In-Vitro Contact Tests with Adult Brown Dog Ticks
(§4) 9 mg compound is solved in 1 mL acetone and diluted with acetone to the desired concentration. 250 of the test solution is filled in 25 mL glass test tubes and homogeneously distributed on the inner walls by rotation and tilting on a shaking device (2 h at 30 rpm). With a compound concentration of 900 ppm, an inner surface of 44.7 cm^2 and a homogeneous distribution, a dose of 5 μg/cm^2 is achieved.
(§5) After the solvent has evaporated, each test tube is filled with 5-10 adult brown dog ticks (Rhipicephalus sanguineus), closed with a perforated lid and incubated in a lying position at room temperature and relative humidity. After 48 hours efficacy is determined. The ticks are patted on the ground of the tubes and are incubated on a heating plate at 45-50° C. for at most 5 minutes Immotile or uncoordinated moving ticks, which are not able to escape the heat by climbing upwards, are marked as dead or moribund.
An efficacy of 100% means all ticks are dead or moribund; 0% means no ticks are dead or moribund.

[9] = test system: adult cat fleas (Ctenocephalides felis); assay: Ctenocephalides felis in-vitro contact test, adult cat flea; conditions: after 48 hours, read-out: efficacy (fleas dead or moribund); for pest or weed control at 1 µg/cm2, 100 g/ha: 1 μg/cm^2 (=100 g/ha); for pest or weed control at 5 µg/cm2, 500 g/ha: 5 μg/cm^2 (=500 g/ha)
Protocol: Ctenocephalides felis—In-Vitro Contact Tests Adult Cat Flea
as §4, with “1 ml” for “1 mL”, “250 μL” for “250”
as §5, with “cat fleas (Ctenocephalides felis),” for “brown dog ticks (Rhipicephalus sanguineus),”, “fleas” for “ticks”, “fleas,” for “ticks,”
An efficacy of 100% means all fleas are dead or moribund; 0% means no fleas are dead or moribund.

SMILES	mortality at 100 g/ha [1] [%]	pest or weed control at 6.4 µg/disc, 20 g/ha [2] [%]	pest or weed control at 32 µg/disc, 100 g/ha [2] [%]	pest or weed control at 1 µg/cm2, 100 g/ha [3] [%]	pest or weed control at 5 µg/cm2, 500 g/ha [3] [%]	mortality at 500 g/ha [4] [%]	mortality at 100 g/ha [5] [%]	pest or weed control at 0.004 mg [6] [%]	mortality at 100 ppm [7] [%]	pest or weed control at 5 µg/cm2, 500 g/ha [8] [%]	pest or weed control at 1 µg/cm2, 100 g/ha [9] [%]	pest or weed control at 5 µg/cm2, 500 g/ha [9] [%]	pest or weed control at 1 µg/cm2, 100 g/ha [8] [%]
CCN(C)C(=O)c1cnc(-c2nccnc2[C@@H](C)NC(=O)c2cc(C(F)(F)F)cc(C(F)(F)F)c2)s1 [Example I-84, 2-(3-{(1R)-1-[3,5-bis(trifluoromethyl)benzamido]ethyl}pyrazin-2-yl)-N-ethyl-N-methyl-1,3-thiazole-5-carboxamide]	90	–	–	–	–	–	–	–	–	–	–	–	–
COc1ccc(-c2nccnc2C(C)NC(=O)c2cc(Cl)cc(OC(F)(F)F)c2)nc1 (centres unmarked) [Example I-28]	90	100	80	90	80	–	–	–	–	–	–	–	–
CCN(C)C(=O)c1cnc(-c2ncc(C)nc2[C@H](C)NC(=O)c2cc(C(F)(F)F)cc(C(F)(F)F)c2)s1 [Example I-155, (+)-2-(3-{(1S)-1-[3,5-Bis(trifluoromethyl)benzamido]ethyl}-5-methylpyrazin-2-yl)-N-ethyl-N-methyl-1,3-thiazole-5-carboxamide]	–	100	100	–	–	100	100	–	–	–	–	–	–
CC(NC(=O)c1cncc(C(F)(F)F)c1)c1nccnc1-c1nccs1 (racemic) [Example I-2, (rac)-N-(1-(3-(Thiazol-2-yl)pyrazin-2-yl)ethyl)-5-(trifluoromethyl)nicotinamide]	–	–	–	–	–	–	–	100	90	100	–	–	–
CC(NC(=O)c1cc(Cl)cc(OC(F)(F)F)c1)c1nccnc1-n1cc(C(=O)N(C)CC2CC2)cn1 (racemic) [Example I-133, (rac)-1-(3-{1-[3-Chloro-5-(trifluoromethoxy)benzamido]ethyl}pyrazin-2-yl)-N-(cyclopropylmethyl)-N-methyl-1H-pyrazole-4-carboxamide]	–	100	100	100	100	100	100	–	–	100	100	100	100
CC(NC(=O)c1cc(C(F)(F)F)cc(C(F)(F)F)c1)c1nccnc1-n1cc(C(=O)N(C)CC2CC2)cn1 (racemic) [Example I-131, (rac)-1-(3-{1-[3,5-Bis(trifluoromethyl)benzamido]ethyl}pyrazin-2-yl)-N-(cyclopropylmethyl)-N-methyl-1H-pyrazole-4-carboxamide]	–	100	100	100	100	100	100	–	–	80	–	–	80
CC(NC(=O)c1cc(Cl)cc(S(C)(=O)=O)c1)c1nccnc1-n1cc(C(F)(F)F)cn1 (racemic) [Example I-93, (rac)-3-Chloro-5-(methanesulfonyl)-N-[1-{3-[4-(trifluoromethyl)-1H-pyrazol-1-yl]pyrazin-2-yl}ethyl]benzamide]	–	100	100	100	100	100	100	–	–	80	–	–	–
CC(NC(=O)c1cc(C(F)(F)F)cc(C(F)(F)F)c1)c1nccnc1-n1cc(C(=O)N(C)C2CC2)cn1 (racemic) [Example I-139, (rac)-1-(3-{1-[3,5-Bis(trifluoromethyl)benzamido]ethyl}pyrazin-2-yl)-N-cyclopropyl-N-methyl-1H-pyrazole-4-carboxamide]	–	–	80	100	100	100	100	–	–	–	–	–	–
CC(NC(=O)c1cc(C(F)(F)F)cc(C(F)(F)F)c1)c1nccnc1-c1ncc(C(=O)N(C)CC(F)(F)F)s1 (racemic) [Example I-65, (rac)-2-(3-{1-[3,5-Bis(trifluoromethyl)benzamido]ethyl}pyrazin-2-yl)-N-methyl-N-(2,2,2-trifluoroethyl)-1,3-thiazole-5-carboxamide]	–	–	–	100	100	–	100	80	80	80	100	100	–
CC(NC(=O)c1cc(Cl)cc(C(F)(F)F)c1)c1nccnc1-c1ccc(Cl)cn1 (centres unmarked) [Example I-24]	–	100	100	90	90	–	100	100	100	–	–	–	–
CC(NC(=O)c1cc(Cl)cc(S(C)(=O)=O)c1)c1nccnc1-n1cc(Cl)cn1 (racemic) [Example I-99, (rac)-3-Chloro-N-{1-[3-(4-chloro-1H-pyrazol-1-yl)pyrazin-2-yl]ethyl}-5-(methanesulfonyl)benzamide]	–	–	–	–	–	100	–	–	–	–	–	–	–
